Experiment [1] can be described thus: Inhibition of factor Xa.
The target in a further experiment is Prothrombin (Homo sapiens, UniProt P00734). The experiment in a line: Inhibition of Coagulation factor II.
In the next experiment the target is Serine protease 1 (Homo sapiens, UniProt P07477). The experiment can be described thus: Inhibitory activity against trypsin.
Another experiment concerns Rattus norvegicus. The experiment in a line: Effect on thrombus weight in rat vena cava thrombosis model (iv administration). In kind it is functional.

From ChEMBL document CHEMBL1131664, “Design and synthesis of potent and selective 5,6-fused heterocyclic thrombin inhibitors” (Bioorg Med Chem Lett, 1999) come the findings set out here.

SMILES strings stand for the structures. Some results are limits rather than exact numbers.

Sequence of Serine protease 1 (P07477 whole entry): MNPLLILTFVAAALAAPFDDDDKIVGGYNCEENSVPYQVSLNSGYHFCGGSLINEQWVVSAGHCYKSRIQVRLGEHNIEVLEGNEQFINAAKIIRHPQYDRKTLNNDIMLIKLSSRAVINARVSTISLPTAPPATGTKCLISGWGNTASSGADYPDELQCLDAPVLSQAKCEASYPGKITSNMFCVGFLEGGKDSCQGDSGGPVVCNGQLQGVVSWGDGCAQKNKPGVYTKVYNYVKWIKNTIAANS

As to `N=C(N)c1ccc2c(ccn2CC(=O)N2CCC(Cc3cccc(F)c3)CC2)c1`, the figures for the Ki (in experiment [1]; on Prothrombin) were 11000 nM and 24 nM, respectively.
For the compound `N=C(N)c1c[nH]c2cc(S(=O)(=O)N3CCC(Cc4ccccc4)CC3)ccc12`, the results for the Ki (in experiment [1]; on Prothrombin; at Serine protease 1) were 3300 nM, 210 nM and 1200 nM, respectively.
As for `N=C(N)c1ccc2c(cnn2CC(=O)N2CCC(Cc3ccccc3)CC2)c1`, the inhibition constant (Ki) in experiment [1] was 2900 nM; at Prothrombin, 140 nM; at Serine protease 1 it was more than 6000 nM.
Consider `N=C(N)c1ccc2c(ccn2CC(=O)N2CCC(C(O)c3ccccc3)CC2)c1` (stereo not given), for which the Ki in experiment [1] was 16000 nM; at Prothrombin it was more than 21000 nM; at Serine protease 1 it was more than 15000 nM.
On to `COC(=O)/C=C/c1cn(CC(=O)N2CCC(Cc3ccccc3)CC2)c2ccc(C(=N)N)cc12`, for which the Ki amounted to 1200 nM in experiment [1], 28 nM on Prothrombin and 280 nM at Serine protease 1.
Consider `N=C(N)c1ccc2c(ccn2CC(=O)N2CCC(Cc3ccccc3)CC2)c1`, for which, in the experiment on Rattus norvegicus, the ID50 is 0.8 mg/kg/h. For the same compound, the Ki was 10300 nM in experiment [1], 18 nM at Prothrombin and more than 15000 nM at Serine protease 1.
As to `N=C(N)c1ccc2c(c1)c(CCO)cn2CC(=O)N1CCC(Cc2ccccc2)CC1`, the values for the Ki (in experiment [1]; at Prothrombin; at Serine protease 1) were 2400 nM, 7 nM and 310 nM, respectively.
Regarding `N=C(N)c1ccc2c(ccn2CC(=O)N2CCC(C(=O)c3ccccc3)CC2)c1`, the figures for the Ki (in experiment [1]; at Prothrombin; at Serine protease 1) were 9500 nM, more than 21000 nM and more than 15000 nM, respectively.
`CC(=O)N[C@H](Cc1ccccc1)C(=O)N1CCC[C@H]1C(=O)N[C@@H](CCCN=C(N)N)B(O)O` gave an ID50 with Rattus norvegicus of 0.04 mg/kg/h. On Serine protease 1, this compound yielded a Ki of 9 nM.
With `N=C(N)c1ccc2c(c1)c(CC(=O)O)cn2CC(=O)N1CCC(Cc2ccccc2)CC1`, the Ki is 3000 nM in experiment [1] and 19 nM at Prothrombin.
For `N=C(N)c1ccc2c(ccn2CC(=O)N2CCC(Cc3ccccc3F)CC2)c1` the same measures were 23000 nM and 24 nM.
Take `N=C(N)c1ccc2c(c1)ncn2CC(=O)N1CCC(Cc2ccccc2)CC1`: the results for the Ki (in experiment [1]; on Prothrombin) were 25000 nM and 300 nM, respectively.
Take `COC(=O)Cc1cn(CC(=O)N2CCC(Cc3ccccc3)CC2)c2ccc(C(=N)N)cc12`: the inhibition constant (Ki) was found to be 400 nM in experiment [1], 7.4 nM at Prothrombin and 140 nM at Serine protease 1.

The term Ki denotes a measure of affinity in units of concentration, obtained from inhibition or displacement. Higher therefore signals weaker binding.
